How the values were obtained:
Type in all cases: in vivo, Humulus lupulus
Cashmere Hops [1] = assay: Bitter acids analysis of treated hop plants, Example 2 (HPLC, modified EBC 7.8); conditions: MDJ foliar spray 1 mM or 5 mM vs untreated control
Procedure: (§1) Hop plants were treated with illustrative elicitor compositions of the disclosure to determine the effect of treatment on hop terpene content. The hop cultivar was Cashmere Hops. The treatments were as follows: Control (“CK2”)—Untreated control; TR1—1 mM MDJ Foliar Spray: TR2—5 mM MDJ Foliar Spray.
(§2) Harvested hops were analyzed for total oil, beta acid, alpha acid, terpene, and thiol content. Total oil analysis was performed according to Analytica EBC Method 7.10, employing steam distillation. Alpha/beta/iso-alpha acid analysis was performed using HPLC, employing a modified version of Analytica EBC Method 7.8. Terpene analysis was performed according to Analytica EBC Method 7.12, employing Capillary Gas Chromatography Flame Ionization Detection. Thiol composition was analyzed via gas chromatography with sulfur chemiluminescence detector (GC-SCD).

Cashmere Hops [2] = assay: Terpene analysis of treated hop plants, Example 2 (EBC 7.12, GC-FID); conditions: 5 mM MDJ foliar spray vs control
Procedure: as §1, §2

CTZ hop plants [3] = assay: Total oil analysis of treated hop plants, Example 4
Procedure: (§3) Hop plants were treated with illustrative elicitor compositions of the disclosure to determine the effect of treatment on hop bitter acid and terpene content. The hop cultivar was CTZ, also known as Columbus, Tomahawk, or Zeus, three trade names owned by various private corporations for the same variety of hop. The treatments were as follows: 1 mM, 5 mM, and 10 mM MDJ Foliar Spray. Harvested hops were analyzed for total oil, beta acid, alpha acid, and terpene content. Total oil and terpene analysis was performed according to a modified version of Analytica EBC Method 7.12, employing Capillary Gas Chromatography Flame Ionization Detection. Plants were measured in triplicate from each treatment group; results represent the average of three samples. Alpha/beta/iso-alpha acid analysis was performed using HPLC, employing a modified version of Analytica EBC Method 7.8.

CTZ hop plants [4] = assay: Alpha/beta acid analysis of treated hop plants, Example 4 (HPLC, modified EBC 7.8)
Procedure: as §3

CTZ hop plants [5] = assay: Terpene analysis of treated hop plants, Example 4 (modified EBC 7.12, GC-FID); conditions: % of overall terpene content; for Terpene content: Geranyl acetate 1*: (2E) isomer; for Terpene content: Geranyl acetate 2**: (2Z) isomer; for Terpene content: Nerolidol 1*: (E) isomer; for Terpene content: Nerolidol 2**: (Z) isomer
Procedure: as §3

SMILES: CCCCCC1C(=O)CCC1CC(=O)OC (stereo not drawn) [MDJ, methyl dihydrojasmonate]
- content of the alpha acid analogue cohumulone (Cashmere Hops [1]): decreased
- beta acid content (Cashmere Hops [1]; especially at 5 mM): statistically significant increase
- caryophyllene content (Cashmere Hops [2]): increased
- caryophyllene oxide content (Cashmere Hops [2]): decreased
- citral content (Cashmere Hops [2]): decreased
- farnesene content (Cashmere Hops [2]): increased
- geraniol content (Cashmere Hops [2]): increased
- humulene content (Cashmere Hops [2]): increased
- methyl heptanoate content (Cashmere Hops [2]): decreased
- methyl laurate content (Cashmere Hops [2]): decreased
- methyl octanoate content (Cashmere Hops [2]): increased
- methyl thiohexanoate content (Cashmere Hops [2]): increased
- myrcene content (Cashmere Hops [2]): decreased
- nerolidol content (Cashmere Hops [2]): increased
- ocimene content (Cashmere Hops [2]): increased
- q-pinene content (Cashmere Hops [2]): increased
- β-pinene content (Cashmere Hops [2]): decreased
- Total oil (CTZ hop plants [3]; 1 mM MDJ foliar spray): 1.43 mL/100 g
- Total oil (CTZ hop plants [3]; 5 mM MDJ foliar spray): 2.22 mL/100 g
- Total oil (CTZ hop plants [3]; 10 mM MDJ foliar spray): 1.72 mL/100 g
- Alpha Acids (CTZ hop plants [4]; 1 mM MDJ foliar spray): 4.83%
- Beta Acids (CTZ hop plants [4]; 1 mM MDJ foliar spray): 3.53%
- Cohumulone (CTZ hop plants [4]; 1 mM MDJ foliar spray): 21.43 % alpha
- Colupulone (CTZ hop plants [4]; 1 mM MDJ foliar spray): 43.53 % beta
- Alpha Acids (CTZ hop plants [4]; 5 mM MDJ foliar spray): 6.10%
- Beta Acids (CTZ hop plants [4]; 5 mM MDJ foliar spray): 3.83%
- Cohumulone (CTZ hop plants [4]; 5 mM MDJ foliar spray): 23.37 % alpha
- Colupulone (CTZ hop plants [4]; 5 mM MDJ foliar spray): 49.3 % beta
- Alpha Acids (CTZ hop plants [4]; 10 mM MDJ foliar spray): 7.80%
- Beta Acids (CTZ hop plants [4]; 10 mM MDJ foliar spray): 4.23%
- Cohumulone (CTZ hop plants [4]; 10 mM MDJ foliar spray): 26.03 % alpha
- Colupulone (CTZ hop plants [4]; 10 mM MDJ foliar spray): 43.47 % beta
- Colupolone content, as a percentage of overall beta acids (CTZ hop plants [4]; 1, 5, 10 mM MDJ foliar spray): highest at 5 mM treatment
- alpha acid content (CTZ hop plants [4]; 1, 5, 10 mM MDJ foliar spray): dose-dependent increase
- beta acid content (CTZ hop plants [4]; 1, 5, 10 mM MDJ foliar spray): dose-dependent increase
- Cohumulone content as a percentage of overall alpha acids (CTZ hop plants [4]; with increasing MDJ concentration (1, 5, 10 mM)): increased
- Terpene content: 2-Undecanone (CTZ hop plants [5]; 1 mM MDJ foliar spray): 0.00%
- Terpene content: Alpha-pinene (CTZ hop plants [5]; 1 mM MDJ foliar spray): 0.37%
- Terpene content: Beta-ionone (CTZ hop plants [5]; 1 mM MDJ foliar spray): 0.08%
- Terpene content: Beta-pinene (CTZ hop plants [5]; 1 mM MDJ foliar spray): 0.36%
- Terpene content: Caryophyllene (CTZ hop plants [5]; 1 mM MDJ foliar spray): 16.6%
- Terpene content: Caryophyllene oxide (CTZ hop plants [5]; 1 mM MDJ foliar spray): 0.12%
- Terpene content: Citral (CTZ hop plants [5]; 1 mM MDJ foliar spray): 0.32%
- Terpene content: Citronellene (CTZ hop plants [5]; 1 mM MDJ foliar spray): 0.42%
- Terpene content: Citronellol (CTZ hop plants [5]; 1 mM MDJ foliar spray): 0.00%
- Terpene content: Farnesene (CTZ hop plants [5]; 1 mM MDJ foliar spray): 0.00%
- Terpene content: Geraniol (CTZ hop plants [5]; 1 mM MDJ foliar spray): 0.52%
- Terpene content: Humulene (CTZ hop plants [5]; 1 mM MDJ foliar spray): 38.7%
- Terpene content: Limonene (CTZ hop plants [5]; 1 mM MDJ foliar spray): 0.10%
- Terpene content: Linalool (CTZ hop plants [5]; 1 mM MDJ foliar spray): 0.21%
- Terpene content: Methyl Heptanoate (CTZ hop plants [5]; 1 mM MDJ foliar spray): 0.06%
- Terpene content: Methyl Laurate (CTZ hop plants [5]; 1 mM MDJ foliar spray): 0.39%
- Terpene content: Methyl Octanoate (CTZ hop plants [5]; 1 mM MDJ foliar spray): 0.44%
- Terpene content: Methyl thiohexanoate (CTZ hop plants [5]; 1 mM MDJ foliar spray): 0.05%
- Terpene content: Myrcene (CTZ hop plants [5]; 1 mM MDJ foliar spray): 27.0%
- Terpene content: Nerol (CTZ hop plants [5]; 1 mM MDJ foliar spray): 0.03%
- Terpene content: Ocimene (CTZ hop plants [5]; 1 mM MDJ foliar spray): 0.39%
- Terpene content: Terpinolene (CTZ hop plants [5]; 1 mM MDJ foliar spray): 0.25%
- Terpene content: Unidentified (CTZ hop plants [5]; 1 mM MDJ foliar spray): 13.0%
- Terpene content: Geranyl acetate 1* (CTZ hop plants [5]; 1 mM MDJ foliar spray): 0.38%
- Terpene content: Geranyl acetate 2** (CTZ hop plants [5]; 1 mM MDJ foliar spray): 0.07%
- Terpene content: Nerolidol 1* (CTZ hop plants [5]; 1 mM MDJ foliar spray): 0.09%
- Terpene content: Nerolidol 2** (CTZ hop plants [5]; 1 mM MDJ foliar spray): 0.06%
- Terpene content: 2-Undecanone (CTZ hop plants [5]; 5 mM MDJ foliar spray): 0.01%
- Terpene content: Alpha-pinene (CTZ hop plants [5]; 5 mM MDJ foliar spray): 0.14%
- Terpene content: Beta-ionone (CTZ hop plants [5]; 5 mM MDJ foliar spray): 0.59%
- Terpene content: Beta-pinene (CTZ hop plants [5]; 5 mM MDJ foliar spray): 0.35%
- Terpene content: Caryophyllene (CTZ hop plants [5]; 5 mM MDJ foliar spray): 13.4%
- Terpene content: Caryophyllene oxide (CTZ hop plants [5]; 5 mM MDJ foliar spray): 0.04%
- Terpene content: Citral (CTZ hop plants [5]; 5 mM MDJ foliar spray): 0.11%
- Terpene content: Citronellene (CTZ hop plants [5]; 5 mM MDJ foliar spray): 0.42%
- Terpene content: Citronellol (CTZ hop plants [5]; 5 mM MDJ foliar spray): 0.00%
- Terpene content: Farnesene (CTZ hop plants [5]; 5 mM MDJ foliar spray): 0.03%
- Terpene content: Geraniol (CTZ hop plants [5]; 5 mM MDJ foliar spray): 0.78%
- Terpene content: Humulene (CTZ hop plants [5]; 5 mM MDJ foliar spray): 27.3%
- Terpene content: Limonene (CTZ hop plants [5]; 5 mM MDJ foliar spray): 0.09%
- Terpene content: Linalool (CTZ hop plants [5]; 5 mM MDJ foliar spray): 0.31%
- Terpene content: Methyl Heptanoate (CTZ hop plants [5]; 5 mM MDJ foliar spray): 0.05%
- Terpene content: Methyl Laurate (CTZ hop plants [5]; 5 mM MDJ foliar spray): 0.11%
- Terpene content: Methyl Octanoate (CTZ hop plants [5]; 5 mM MDJ foliar spray): 0.31%
- Terpene content: Methyl thiohexanoate (CTZ hop plants [5]; 5 mM MDJ foliar spray): 0.05%
- Terpene content: Myrcene (CTZ hop plants [5]; 5 mM MDJ foliar spray): 39.0%
- Terpene content: Nerol (CTZ hop plants [5]; 5 mM MDJ foliar spray): 0.00%
- Terpene content: Ocimene (CTZ hop plants [5]; 5 mM MDJ foliar spray): 0.28%
- Terpene content: Terpinolene (CTZ hop plants [5]; 5 mM MDJ foliar spray): 0.11%
- Terpene content: Unidentified (CTZ hop plants [5]; 5 mM MDJ foliar spray): 15.7%
- Terpene content: Geranyl acetate 1* (CTZ hop plants [5]; 5 mM MDJ foliar spray): 0.43%
- Terpene content: Geranyl acetate 2** (CTZ hop plants [5]; 5 mM MDJ foliar spray): 0.11%
- Terpene content: Nerolidol 1* (CTZ hop plants [5]; 5 mM MDJ foliar spray): 0.14%
- Terpene content: Nerolidol 2** (CTZ hop plants [5]; 5 mM MDJ foliar spray): 0.12%
- Terpene content: 2-Undecanone (CTZ hop plants [5]; 10 mM MDJ foliar spray): 0.07%
- Terpene content: Alpha-pinene (CTZ hop plants [5]; 10 mM MDJ foliar spray): 0.11%
- Terpene content: Beta-ionone (CTZ hop plants [5]; 10 mM MDJ foliar spray): 0.52%
- Terpene content: Beta-pinene (CTZ hop plants [5]; 10 mM MDJ foliar spray): 0.54%
- Terpene content: Caryophyllene (CTZ hop plants [5]; 10 mM MDJ foliar spray): 13.2%
- Terpene content: Caryophyllene oxide (CTZ hop plants [5]; 10 mM MDJ foliar spray): 0.07%
- Terpene content: Citral (CTZ hop plants [5]; 10 mM MDJ foliar spray): 0.20%
- Terpene content: Citronellene (CTZ hop plants [5]; 10 mM MDJ foliar spray): 0.39%
- Terpene content: Citronellol (CTZ hop plants [5]; 10 mM MDJ foliar spray): 0.00%
- Terpene content: Farnesene (CTZ hop plants [5]; 10 mM MDJ foliar spray): 0.02%
- Terpene content: Geraniol (CTZ hop plants [5]; 10 mM MDJ foliar spray): 0.82%
- Terpene content: Humulene (CTZ hop plants [5]; 10 mM MDJ foliar spray): 24.7%
- Terpene content: Limonene (CTZ hop plants [5]; 10 mM MDJ foliar spray): 0.09%
- Terpene content: Linalool (CTZ hop plants [5]; 10 mM MDJ foliar spray): 0.31%
- Terpene content: Methyl Heptanoate (CTZ hop plants [5]; 10 mM MDJ foliar spray): 0.06%
- Terpene content: Methyl Laurate (CTZ hop plants [5]; 10 mM MDJ foliar spray): 0.19%
- Terpene content: Methyl Octanoate (CTZ hop plants [5]; 10 mM MDJ foliar spray): 0.24%
- Terpene content: Methyl thiohexanoate (CTZ hop plants [5]; 10 mM MDJ foliar spray): 0.02%
- Terpene content: Myrcene (CTZ hop plants [5]; 10 mM MDJ foliar spray): 39.6%
- Terpene content: Nerol (CTZ hop plants [5]; 10 mM MDJ foliar spray): 0.02%
- Terpene content: Ocimene (CTZ hop plants [5]; 10 mM MDJ foliar spray): 0.16%
- Terpene content: Terpinolene (CTZ hop plants [5]; 10 mM MDJ foliar spray): 0.05%
- Terpene content: Unidentified (CTZ hop plants [5]; 10 mM MDJ foliar spray): 17.8%
- Terpene content: Geranyl acetate 1* (CTZ hop plants [5]; 10 mM MDJ foliar spray): 0.38%
- Terpene content: Geranyl acetate 2** (CTZ hop plants [5]; 10 mM MDJ foliar spray): 0.09%
- Terpene content: Nerolidol 1* (CTZ hop plants [5]; 10 mM MDJ foliar spray): 0.17%
- Terpene content: Nerolidol 2** (CTZ hop plants [5]; 10 mM MDJ foliar spray): 0.22%
